The test system of one data set is male NIH-Swiss mice. Description: Forced-swim test in mice (mFST). It is filed as in vivo, mouse. An excerpt: Forced-Swim Test in Mice (mFST)
mFST is an established in vivo assay for antidepressant activity (Li et al. J Pharmacol Exp Ther. 319(1):254-9, 2006.). […] The mFST was used to evaluate potential antidepressant-like activity of novel mGlu2/3 antagonists essentially as described in previously published methods (see for example, Li et al. J Pharmacol Exp Ther. 319(1):254-9, 2006.). Briefly, male NIH-Swiss mice (Harlan Sprague-Dawley, Indianapolis, Ind.) weighing between 25-30 g are used. Group housed animals are removed from the vivarium to the testing area in their own cages and allowed to adapt to the new environment for at least 1 hour before testing. Compounds where R^1 and R^2 are both hydrogen are dissolved in water with minimal NaOH added for dissolution and are administered i.p. Compounds where R^1 and/or R^2 are other than hydrogen are prepared on the day of use in 2.0-2.5% N-methyl-pyrrolidinone and then suspended in 1% HEC, 0.25% Tween 80, and 0.05% Dow antifoam, and administered orally. Mice are placed in a cylinder (diameter: 10 cm; height: 25 cm) filled with 6 cm of water (22-25° C.) for 6 min. The duration of immobility during the last 4 min. of the 6 min. period of the test was scored. A mouse is recorded as immobile when floating motionless or making only those movements necessary to keep its head above water.

The nature of data set [1]: Brain and plasma levels of active di-acid in the fluoxetine combination study. Type of data set: in vivo, mouse. To be noted: combination with fluoxetine versus alone. The source says:
The compounds of the invention may also be tested in combination with other compounds useful for the treatment of depressive disorders, as for example SSRI's, for their ability to enhance the antidepressant-like effects over that of either compound alone.

A further data set has as its system mGlu2+/+ mice. The data set can be described thus: mFST in mGlu2+/+ littermate mice. Type of data set: in vivo, mouse. To be noted: 30 mg/kg, po, 120 min prior.
The next data set relates to mice. Description: mFST with SSRI (fluoxetine combination). It is filed as in vivo, mouse. The method, then: mFST is an established in vivo assay for antidepressant activity (Li et al. J Pharmacol Exp Ther. 319(1):254-9, 2006.). […] J Pharmacol Exp Ther. 319(1):254-9, 2006.). Briefly, male NIH-Swiss mice (Harlan Sprague-Dawley, Indianapolis, Ind.) weighing between 25-30 g are used. Group housed animals are removed from the vivarium to the testing area in their own cages and allowed to adapt to the new environment for at least 1 hour before testing. Compounds where R^1 and R^2 are both hydrogen are dissolved in water with minimal NaOH added for dissolution and are administered i.p. […] Mice are placed in a cylinder (diameter: 10 cm; height: 25 cm) filled with 6 cm of water (22-25° C.) for 6 min. The duration of immobility during the last 4 min. of the 6 min. period of the test was scored. A mouse is recorded as immobile when floating motionless or making only those movements necessary to keep its head above water. The compounds of the invention may also be tested in combination with other compounds useful for the treatment of depressive disorders, as for example SSRI's, for their ability to enhance the antidepressant-like effects over that of either compound alone.

The test system of the next data set is male Wistar rats. The data set can be described thus: Wakefulness and behavioral monitoring in rats (EEG/EMG/LMA). To be noted: for Locomotor Activity Intensity, Mean (difference from vehicle controls): averaged over the first 7 hr post-treatment; for Cumulative Time Awake 8-19 hours, Mean (difference from vehicle controls): rebound hypersomnolence measure. It is filed as in vivo, rat. The method, then:
Wakefulness and Behavioral Monitoring in Rats:
Representative compounds of the present invention are tested in rats for their ability to increase the amount of time in a state of wakefulness without undesired effects such as inhibition of REM sleep, waking motor impairment (disproportionate hyper- or hypolocomotion), and/or rebound hypersomnia Test animals are continuously monitored by electro-encephalograms (EEG), electromyograms (EMG), and motion to measure cumulative time awake, rebound hypersomnia, and locomotor activity intensity during wakefulness. Methods for such studies are known in the art (see for example methods described in Edgar D M, Seidel W F. Modafinil induces wakefulness without intensifying motor activity or subsequent rebound hypersomnolence in the rat. J Pharmacology & Experimental Therapeutics 1997; 283: 757-769; van Gelder R N, Edgar D M, Dement W C. Real-time automated sleep scoring: validation of a microcomputer-based system for mice. Sleep 1991, 14: 48-55; and Gross B A, Walsh C M, Turakhia A A, Booth V, Mashour G A, Poe G R. Open-source logic-based automated sleep scoring software using electrophysiological recordings in rats. J Neurosci Methods. 2009; 184(1):10-8.) Studies are conducted as follows:
Adult, male Wistar rats (approximately 270-300 g at time of surgery) are surgically fitted for chronic recording of EEG, EMG, body temperature, and motion as follows: Rats are surgically prepared with a cranial implant consisting of four stainless steel screws for EEG recording (two frontal [3.9 mm anterior from bregma, and ±2.0 mm mediolaterally] and two occipital [6.4 mm posterior from bregma, ±5.5 mm mediolaterally]), and with two Teflon-coated stainless steel wires for EMG recording (positioned under the nuchal trapezoid muscles). All leads are soldered to a miniature connector (Microtech, Boothwyn, Pa.) prior to surgery. The implant assembly is affixed to the skull by the combination of the stainless steel EEG recording screws, cyanoacrylate applied between the implant connector and skull, and dental acrylic. Body temperature and locomotor activity is monitored via a miniature transmitter (Minimitter PDT4000G, Philips Respironics, Bend, Oreg.) surgically placed into the abdomen. At least 3 weeks are allowed for recovery.
Each rat is housed individually within a microisolator cage modified with an inserted polycarbonate filter-top riser to allow more vertical headroom. A flexible cable that minimally restricts movement is connected at one end to a commutator affixed to the cage top and at the other end to the animal's cranial implant. Each cage is located within separate, ventilated compartments of a stainless steel sleep-wake recording chamber. Food and water are available ad libitum and the ambient temperature is maintained at about 23±1° C. A 24-hr light-dark cycle (LD 12:12) using fluorescent light is maintained throughout the study. Relative humidity averages approximately 50%. Animals are undisturbed for at least 30 hrs before and after each treatment.
Compounds where R^1 and R^2 are both hydrogen are dissolved in water with minimal NaOH added for dissolution and are administered i.p in a volume of 1.0 mL per kg body weight. Compounds where R^1 and/or R^2 are other than hydrogen are administer p.o. in a volume of 2 mL per kg body weight in one of two alternative vehicles: i) 2.5% N-methyl-2-pyrrolidinone in hydroxyethylcellulose; or ii) 10% acacia with 0.05% Dow Corning® Antifoam in water. The vehicle or one of the compound dose levels is administered pseudo-randomly such that no rat receives the same treatment twice, and no rat receives more than two of the 8 treatments in any one study. Each rat is removed from its cage for about a minute to be weighed and treated. At least 6 days “washout” period precede and follow each treatment.
Sleep and wakefulness discrimination may be automated (e.g., Van Gelder et al. 1991; Edgar et al. 1997, Winrow et al., 2010; Gross et al., 2009). […]

`CC(C)OC(=O)OCOC(=O)[C@H]1[C@@H]2[C@H](O)[C@@H](OCc3ccc(Cl)c(Cl)c3)[C@@](N)(C(=O)OCOC(=O)OC(C)C)[C@H]12.Cl` [Example 10, Bis({[(1-methylethoxy)carbonyl]oxy}methyl) (1S,2R,3S,4S,5R,6R)-2-amino-3-[(3,4-dichlorobenzyl)oxy]-4-hydroxybicyclo[3.1.0]hexane-2,6-dicarboxylate hydrochloride] yielded an ED60 in the data set on male NIH-Swiss mice (Mus musculus, po, immobility in last 4 min of 6 min) of 22.1 mg/kg. Besides, the “Maximal Decrease (1 − compound/control) * 100%” value is reported as 50.5% with male NIH-Swiss mice (p.o., immobility time) and 24.5% in the data set with mice (Example 10 17 mg/kg p.o., fluoxetine 10 mg/kg i.p., alone or combined). In addition, the “brain and plasma levels of the active di-acid moiety” value in data set [1] is “no increase in exposure levels”. Also, the immobility time result with mGlu2+/+ mice is recorded as “decrease immobility time”. For the same compound, the “antidepressant-like effect in combination with fluoxetine” value with mice (Example 10 17 mg/kg p.o. with fluoxetine 10 mg/kg i.p.) is reported as “significantly increase the antidepressant-like effect over that of either compound alone”. Besides, the “Immobilization Time” value with mice (Example 10 17 mg/kg p.o., fluoxetine 10 mg/kg i.p., alone or combined, vehicle 174) was 105 s. The “Cumulative Time Awake first 7 hours, Mean (difference from vehicle controls)” value turned out to be 20.4 min in the data set on male Wistar rats (10 mg/kg PO), 48.8 min in the data set on male Wistar rats (30 mg/kg PO) and 64.7 min with male Wistar rats (60 mg/kg PO). The figures for the “Locomotor Activity Intensity, Mean (difference from vehicle controls)” value with male Wistar rats (10 mg/kg PO), in the data set on male Wistar rats (30 mg/kg PO) and in the data set with male Wistar rats (60 mg/kg PO) were 2.7 counts of LMA per minute of EEG-defined wakefulness, 0.5 counts of LMA per minute of EEG-defined wakefulness and 4.2 counts of LMA per minute of EEG-defined wakefulness, respectively. Besides, the “Cumulative Time Awake 8-19 hours, Mean (difference from vehicle controls)” value turned out to be 15.2 min in the data set on male Wistar rats (10 mg/kg PO), 25.6 min with male Wistar rats (30 mg/kg PO) and 34.7 min in the data set on male Wistar rats (60 mg/kg PO).

Source of the values: patent US9056844B2, “4-substituted-3-benzyloxy-bicyclo[3.1.0]hexane compounds as mGluR 2/3 antagonists” (Eli Lilly and Company, priority 2010, dated 2015).
